{
  "source": "patent US10940126B2",
  "about": "“Inhibition of IL-8 in the treatment of pain and/or bone loss” (priority 2015, dated 2021)",
  "key": {"[1]": {"test_system": "RA synovial fibroblasts", "conditions": "cited from earlier work"}, "[2]": {"test_system": "mice", "test": "Mechanical hypersensitivity: von Frey filaments, 50% withdrawal threshold of hind paws", "format": "in vivo"}, "[3]": {"test_system": "Cxcl1, Cxcl2 and other inflammatory factor mRNA", "test": "Quantitative real-time PCR of ankle joint and plantar paw skin mRNA", "format": "in vivo, mice", "conditions": "hD10/B02 mAb 1 mg each; zoledronate 100 ug/kg", "experimental": "Ankle joints and plantar paw skin of the hind legs were processed for gene expression analysis. Muscle and tendons were removed from ankle joints, which were then snap frozen and pulverized. Tissues were sonicated in TRIzol (Invitrogen) and RNA was extracted according to manufacturer's protocol. After complementary DNA (cDNA) synthesis, quantitative real-time PCR (Applied Biosystems) was performed using hydrolysis probes to determine the relative messenger RNA (mRNA) levels. Primers for chemokines Ccl2 (MCP1, Mm00441242_m1), Cxcl1 (Mm04207460_m1), Cxcl2 (Mm00436450_m1), Cxcl5 (Mm00436451_g1), inflammatory cytokines Tnf (Mm00443258_m1), Il1b (Mm00434228_m1), Il6 (Mm00446190_m1), mast cell proteases Mcpt4 (Mcp4, Mm00487636-g1), Tpsb2 (Mcp6, Mm01301240-g1), pro-inflammatory enzyme Cox2 (Mm00478374_m1), matrix metallo proteases Mmp2 (Mm00439498_m1), Mmp9 (Mm00442991_m1), Mmp13 (Mm00439491-m1), and reference gene Hprt1 (Mm01545399_m1) (all from Applied Biosystems) were used to determine threshold cycle values to calculate the number of cell equivalents in each sample with the standard curve method. Data was normalized to Hprt1 values and expressed as relative expression units (REU)."}, "[4]": {"test_system": "neutrophil recruitment", "conditions": "cited from earlier work"}, "[5]": {"conditions": "in vivo; cited from earlier work"}, "[6]": {"conditions": "cited from earlier work"}, "[7]": {"molecular_target": "T1, CXCR2 (Homo sapiens, UniProt P25025)", "T1 sequence (P25025 1-360)": "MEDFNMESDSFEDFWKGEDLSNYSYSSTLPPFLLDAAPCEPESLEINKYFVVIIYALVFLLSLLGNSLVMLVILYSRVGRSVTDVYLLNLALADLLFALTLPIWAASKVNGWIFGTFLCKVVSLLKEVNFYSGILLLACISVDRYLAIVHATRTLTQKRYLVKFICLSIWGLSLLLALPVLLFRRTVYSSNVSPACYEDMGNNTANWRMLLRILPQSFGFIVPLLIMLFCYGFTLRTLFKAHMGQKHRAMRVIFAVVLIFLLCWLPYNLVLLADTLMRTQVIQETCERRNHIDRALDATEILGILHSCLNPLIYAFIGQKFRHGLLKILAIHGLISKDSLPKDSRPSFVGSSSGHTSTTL", "conditions": "relative to SB225002; cited from earlier work"}, "[8]": {"test_system": "ankle joints and tibia", "test": "Joint histology and micro-CT (synovitis, bone erosion, cartilage)", "format": "in vivo", "conditions": "mice"}, "[9]": {"test_system": "osteoclasts", "test": "Osteoclast activation under IL-8 receptor blockade", "conditions": "blockade of IL-8 receptors"}, "[10]": {"test_system": "mice", "test": "Cold sensitivity, acetone drop on hind paw", "format": "in vivo", "conditions": "mice i.v. monoclonal ACPA D10 and B2; reparixin 30 mg/kg/day s.c. six days; day 19", "experimental": "To assess sensitivity to cold, the mice were placed in the same testing device as used for detection of mechanical hypersensitivity. After habituation, a 1 ml syringe was used to gently apply a drop of acetone to the plantar surface of the hind paw and the duration of the nocifensive behavior (lifting, shaking, biting, and licking the paw) was recorded. The test was repeated three times on each paw and the average was calculated."}, "[11]": {"test_system": "mice", "test": "Heat sensitivity, modified Hargreaves box", "format": "in vivo", "conditions": "mice i.v. monoclonal ACPA D10 and B2; reparixin 30 mg/kg/day s.c. six days; tested day 26", "source_text": "Heat sensitivity was examined using a modified Hargreaves box ([…]. et al., 1997). Mice were placed individually in Plexiglas cubicles on the glass surface and allowed to habituate. A radiant heat stimulus was then applied from below to a hind paw until a motion sensor detects a brisk withdrawal and stops the stimulus. Elapsed time is automatically recorded with a cutoff at 20 seconds. Three measurements from each paw were averaged and presented as latency (in seconds) for the withdrawal."}, "[12]": {"conditions": "mice injected with hG09 or hC03, thresholds at baseline, 1.5, 3 and 6 hours"}},
  "note": "“Also recorded” adds a separate entry of the source.",
  "data": [
    {"molecule": "epigallocatechin-3-gallate [EGCG]", "values": [
      {"measurement": "Induction of IL-8 production", "setting": "[1]", "value": "inhibited the induction of IL-8 production"}
    ]},
    {"molecule": "O=C(O)Cc1ccccc1Nc1c(Cl)cccc1Cl", "note": "[diclofenac]", "values": [
      {"measurement": "Pain measured as withdrawal threshold, effect of painkiller", "setting": "[2]; mice injected with hC03 and hB09G09, diclofenac 30 mg/kg, observed during 6 hours", "value": "apparent lack of effect"}
    ]},
    {"molecule": "O=P(O)(O)C(O)(Cn1ccnc1)P(=O)(O)O", "note": "[zoledronate]", "values": [
      {"measurement": "ACPA-induced increase of CXCL1 mRNA in the ankle joint", "setting": "[3]", "value": "efficiently prevented"},
      {"measurement": "ACPA induced pain measured as withdrawal threshold, effect of osteoclast inhibitor", "setting": "[2]; hD10/hB02 mAb 1 mg each, zoledronate for 10 days", "value": "dose-dependent effect; also recorded: dose dependent effect"}
    ]},
    {"molecule": "C[C@@H](C(N)=O)c1ccc(OS(=O)(=O)C(F)(F)F)cc1", "note": "[DF2162, 4-[(1R)-2-amino-1-methyl-2-oxoethyl]phenyl trifluoromethane sulfonate]", "values": [
      {"measurement": "CXCL1 and carrageenan-induced pain-like behavior", "setting": "[4]; mice", "value": "blocked"},
      {"measurement": "Neutrophil recruitment induced by injection of CXCL1 or carrageenan to the paw", "setting": "[4]; mice", "value": "inhibits neutrophil recruitment"},
      {"measurement": "Nociceptor sensitization", "setting": "[4]; mouse, in vivo", "value": "does not directly affect nociceptor sensitization"},
      {"measurement": "Results in pre-clinical studies of adjuvant-induced polyarthritis and bleomycin-induced pulmonary inflammation and fibrosis", "setting": "[5]", "value": "promising results"}
    ]},
    {"molecule": "C[C@H](CO)Nc1nc(SCc2cccc(F)c2F)nc2[nH]c(=O)sc12", "note": "[AZD-8309, 5-[[(2,3-Difluorophenyl)methyl]thio]-7-[[(1R)-2-hydroxy-1-methylethyl]amino]-thiazolo[4,5-d]pyrimidin-2(3H)-one]", "values": [
      {"measurement": "Tolerability in clinical trials", "setting": "[6]; human, in vivo", "value": "well tolerated"}
    ]},
    {"molecule": "O=C(Nc1ccc(Cl)c(S(=O)(=O)N2CCNCC2)c1O)Nc1cccc(F)c1Cl", "note": "[SB656933, 1-(2-chloro-3-fluorophenyl)-3-(4-chloro-2-hydroxy-3-piperazin-1-ylsulfonylphenyl)urea]", "values": [
      {"measurement": "Potency as CXCR2 antagonist", "setting": "[7]", "value": "same potency as SB225002"},
      {"measurement": "Tolerability in clinical trials", "setting": "[6]; human, in vivo", "value": "well tolerated at all doses"}
    ]},
    {"molecule": "CC(C)Cc1ccc([C@@H](C)C(=O)NS(C)(=O)=O)cc1", "note": "[reparixin, (2R)-2-[4-(2-methylpropyl)phenyl]-N-methylsulfonylpropanamide]", "values": [
      {"measurement": "Bone destruction induced by injected ACPA", "setting": "[8]", "value": "completely reversed"},
      {"measurement": "Activation of osteoclasts", "setting": "[9]", "value": "blocks the activation of osteoclasts"},
      {"measurement": "ACPA-induced sensitivity to cold, effect of treatment", "setting": "[10]", "value": "attenuated sensitivity to cold"},
      {"measurement": "ACPA-induced heat hypersensitivity, effect of treatment", "setting": "[11]", "value": "partially reversed"},
      {"measurement": "ACPA-induced mechanical hypersensitivity, effect of treatment", "setting": "[2]; mice i.v. monoclonal ACPA D10 and B2 (1 mg each), reparixin 30 mg/kg/day s.c. six consecutive days starting day 6, vs saline controls", "value": "partially reversed"},
      {"measurement": "Tactile thresholds in naive mice", "setting": "[2]; naive mice not injected with ACPAs, treatment for six days", "value": "did not affect tactile thresholds"},
      {"measurement": "Pain measured as withdrawal threshold, effect of treatment", "setting": "[2]; pain induced by human monoclonal ACPA hC03 (hG09 control), reparixin 30 mg/kg once a day starting day 1", "value": "attenuating effects"}
    ]},
    {"molecule": "NCC1(CC(=O)O)CCCCC1", "note": "[gabapentin]", "values": [
      {"measurement": "Pain measured as withdrawal threshold, effect of painkiller", "setting": "[2]; [12]", "value": "apparent lack of effect; also recorded: no detectable effect on pain"}
    ]},
    {"molecule": "COc1ccc2cc([C@H](C)C(=O)O)ccc2c1", "note": "[naproxen]", "values": [
      {"measurement": "Pain measured as withdrawal threshold, effect of painkiller", "setting": "[2]; [12]", "value": "apparent lack of effect; also recorded: no detectable effect on pain"}
    ]},
    {"molecule": "CC[C@@H](Nc1c(Nc2cccc(C(=O)N(C)C)c2O)c(=O)c1=O)c1ccc(C)o1", "note": "[SCH527123, 2-hydroxy-N,N-dimethyl-3-[[2-[[1(R)-(5-methyl-2-furanyl)propyl]amino]-3,4-dioxo-1-cyclobuten-1-yl]amino]benzamide]", "values": [
      {"measurement": "Adverse events in clinical trials", "setting": "[6]; human, in vivo", "value": "no treatment-induced adverse events were observed"},
      {"measurement": "Severe asthma", "setting": "[6]; oral, clinical trials", "value": "modest improvement"},
      {"measurement": "Sputum neutrophils", "setting": "[6]; oral, clinical trials", "value": "reduction in sputum neutrophils"}
    ]}
  ]
}
